# Measured values from patent publication US6388090B2, “Imidazole derivatives” (Orion Corporation, priority 2000, dated 2002).
# System: alpha2 Adrenoceptors (Alpha2AR)
# Experiment: Antagonist activity on alpha2 adrenoceptors in rat vas deferens in vitro (electrically evoked contractions)
# Conditions: isolated rat vas deferens, field stimulation; antagonist added at least five minutes before alpha2AR agonist
# Protocol: Antagonist activity on alpha2 Adrenoceptors (Alpha2AR) in rat vas deferens in vitro
# Rats were killed by CO2-suffocation. Vas deferentia were dissected out and both prostatic halves were removed to tissue chambers containing Krebs-solution of the following composition (mM): NaCl 118, KCl 4.7, CaCl22.5, KH2PO41.2, MgSO40.6, NaHCO325, glucose 11.1, aerated by 5% carbogen, temperature 37° C., pH 7.4. Propranolol […] and desipramine […] were added to prevent the possible effects on […] receptors and to prevent re-uptake of released norepinephrine, respectively. Preparations were tied to the bottom hooks of the incubation chambers and then to isometric force-displacement transducers above. Electrical stimulation was started after the equilibrium period (5 minutes under a resting tension of 0.5 g) by introducing field stimulation with the following parameters: twin-pulses, voltage 70 V, frequency 0.2 Hz, delay 5 ms, duration 2 ms. […] Inhibition of the electrically evoked contractions was measured as the response to alpha2AR agonists. Antagonist was administered into the incubation medium at least five minutes before agonist. Means ± SEM of percentage inhibition were calculated in the absence and in the presence of antagonist and expressed as dose-response curves. In order to express the antagonist potency, the pA2-value was calculated.
row,Structure (SMILES),"vas deferens Alpha2 antagonistic activity, pA2"
1,"c1ccc(C2CC(Cc3c[nH]cn3)c3ccccc32)cc1 (stereo not shown) [Compound 1, 4-(3-Phenylindan-1-ylmethyl)-1H-imidazole]",pA2 = 7.0
2,"COc1cc2c(cc1OC)C(c1ccccc1)CC2Cc1c[nH]cn1 (stereo not shown) [Compound 2, 4-(5,6-Dimethoxy-3-phenylindan-1-ylmethyl)-1H-imidazole]",pA2 = 6.0
3,"Oc1cc2c(cc1O)C(c1ccccc1)CC2Cc1c[nH]cn1 (stereo not shown) [Compound 3, 1-(1H-Imidazol-4-ylmethyl)-3-phenylindan-5,6-diol]",pA2 = 5.6
4,"Oc1ccc2c(c1)C(Cc1c[nH]cn1)CC2c1ccccc1 (stereo not shown) [Compound 4, 3-(1H-imidazol-4-ylmethyl)-1-phenylindan-5-ol]",pA2 = 6.9
5,"COc1ccc(C2CC(Cc3c[nH]cn3)c3cc(OC)ccc32)cc1 (stereo not shown) [Compound 5, 4-[6-Methoxy-3-(4-methoxyphenyl)indan-1-ylmethyl]-1H-imidazole]",pA2 = 6.3
6,"Oc1ccc(C2CC(Cc3c[nH]cn3)c3cc(O)ccc32)cc1 (stereo not shown) [Compound 6, 1-(4-Hydroxyphenyl)-3-(1H-imidazol-4-ylmethyl)indan-5-ol]",pA2 = 6.6
7,"Fc1ccc(C2CC(Cc3c[nH]cn3)c3ccccc32)cc1 (stereo not shown) [Compound 7, 4-[3-(4-Fluorophenyl)indan-1-ylmethyl]-1H-imidazole]",pA2 = 7.6
8,"Oc1ccc2c(c1)C(Cc1c[nH]cn1)CC2c1ccc(F)cc1 (stereo not shown) [Compound 8, 1-(4-Fluorophenyl)-3-(1H-imidazol-4-ylmethyl)indan-5-ol]",pA2 = 6.7
9,"Fc1cccc(C2CC(Cc3c[nH]cn3)c3ccccc32)c1 (stereo not shown) [Compound 9, 4-[3-(3-Fluorophenyl)indan-1-ylmethyl]-1H-imidazole]",pA2 = 6.2
10,"Fc1ccccc1C1CC(Cc2c[nH]cn2)c2ccccc21 (stereo not shown) [Compound 10, 4-[3-(2-Fluorophenyl)indan-1-ylmethyl]-1H-imidazole]",pA2 = 6.2
11,"Fc1ccc(C2CC(Cc3c[nH]cn3)c3ccccc32)cc1F (stereo not shown) [Compound 11, 4-[3-(3,4-Difluorophenyl)indan-1-ylmethyl]-1H-imidazole]",pA2 = 6.2
12,"c1ccc(C2OC(Cc3c[nH]cn3)c3ccccc32)cc1 (stereo not shown) [Compound 12, 4-(3-Phenyl-1,3-dihydroisobenzofuran-1-ylmethyl)-1H-imidazole]",pA2 = 6.3
13,"COc1ccc2c(c1)C(Cc1c[nH]cn1)C(c1ccccc1)C2 (stereo not shown) [Compound 13, 4-[(2,3-Dihydro-6-methoxy-2-phenyl-1H-inden-1-yl)methyl]-1H-imidazole]",pA2 = 5.6
14,"Oc1ccc2c(c1)C(Cc1c[nH]cn1)C(c1ccccc1)C2 (stereo not shown) [Compound 14, 3-(1H-Imidazol-4-ylmethyl)-2-phenylindan-5-ol]",pA2 = 5.5
15,"Fc1ccc(C2CC(Cc3c[nH]cn3)c3cc(F)ccc32)cc1 (stereo not shown) [Compound 15, 4-[6-Fluoro-3-(4-fluorophenyl)indan-1-ylmethyl]-1H-imidazole]",pA2 = 6.2
16,"c1ccc(C2Cc3ccccc3C2Cc2c[nH]cn2)cc1 (stereo not shown) [Compound 16, 4-[(2,3-Dihydro-2-phenyl-1H-inden-1-yl)methyl]-1H-imidazole]",pA2 = 6.5
